Experimental data taken from patent publication US11084800B2 (Achillion Pharmaceuticals, Inc., priority 2017, dated 2021).

What follows are compounds tested against Human Factor D (Homo sapiens (Human), UniProt P00746) (assay: Human Factor D Assay). Conditions: Factor D inhibition, assay of Example 10; read-out: IC5 (Stars).
Assay type: biochemical
In short: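 Serum-purified Factor D (80 nM final) preincubated 5 min at room temperature with compound in 50 mM Tris, 1 M NaCl, pH 7.5. Z-L-Lys-SBz and DTNB added at 100 μM each; A405 followed every 30 s for 30 min. IC50 from nonlinear regression of rates versus concentration.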

Human Factor D, sequence (P00746 26-253): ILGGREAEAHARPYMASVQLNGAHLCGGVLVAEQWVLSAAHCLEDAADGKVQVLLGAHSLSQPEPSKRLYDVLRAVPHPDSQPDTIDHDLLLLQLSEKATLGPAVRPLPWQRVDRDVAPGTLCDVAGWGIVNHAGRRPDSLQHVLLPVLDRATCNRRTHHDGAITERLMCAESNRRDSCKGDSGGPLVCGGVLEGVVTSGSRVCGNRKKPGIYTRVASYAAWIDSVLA

Structure (SMILES) | IC50 [nM]
CC(=O)c1nn(CC(=O)N2[C@@H](C(=O)Nc3nc(Br)ccc3C)C[C@]3(CC#N)C[C@H]23)c2cnc(-c3cnc(C)nc3)cc12 [Compound 240, (1S,3R,5S)-2-(2-(3-acetyl-5-(2-methylpyrimidin-5-yl)-1H-pyrazolo[3,4-c]pyridin-1-yl)acetyl)-N-(6-bromo-3-methylpyridin-2-yl)-5-(cyanomethyl)-2-azabicyclo[3.1.0]hexane-3-carboxamide] | 1000 to 10000
CC(=O)c1nn(CC(=O)N2C[C@H]3C[C@H]3[C@H]2C(=O)Nc2nc(Br)ccc2C)c2c(C)nc(-c3cnc(C)nc3)cc12 [Compound 241, (1R,2S,5S)-3-(2-(3-acetyl-7-methyl-5-(2-methylpyrimidin-5-yl)-1H-pyrazolo[3,4-c]pyridin-1-yl)acetyl)-N-(6-bromo-3-methylpyridin-2-yl)-3-azabicyclo[3.1.0]hexane-2-carboxamide] | < 1000
CC(=O)c1nn(CC(=O)N2[C@H](C(=O)Nc3nc(Br)ccc3C)C[C@@]3(CN4C[C@H]5CCC[C@H]5C4)C[C@@H]23)c2cnc(-c3cnc(C)nc3)cc12 [Compound 245, (1R,3S,5R)-2-(2-(3-acetyl-5-(2-methylpyrimidin-5-yl)-1H-pyrazolo[3,4-c]pyridin-1-yl)acetyl)-N-(6-bromo-3-methylpyridin-2-yl)-5-(((3aR,6a5)-hexahydrocyclopenta [c]pyrrol-2(1H)-yl)methyl)-2-azabicyclo[3.1.0]hexane-3-carboxamide] | < 1000
CC(=O)c1nn(CC(=O)N2[C@H](C(=O)Nc3nc(Br)ccc3C)C[C@@]3(CN4CC5(CCCC5)C4)C[C@@H]23)c2cnc(-c3cnc(C)nc3)cc12 [Compound 246, (1R,3S,5R)-5-(2-azaspiro[3.4]octan-2-ylmethyl)-2-(2-(3-acetyl-5-(2-methylpyrimidin-5-yl)-1H-pyrazolo[3,4-c]pyridin-1-yl)acetyl)-N-(6-bromo-3-methylpyridin-2-yl)-2-azabicyclo[3.1.0]hexane-3-carboxamide] | < 1000
CC(=O)c1nn(CC(=O)N2[C@H](C(=O)Nc3nc(Br)c(F)cc3C)C[C@@]3(CC#N)C[C@@H]23)c2cnc(-c3cnc(C)nc3)cc12 [Compound 249, (1R,3S,5R)-2-(2-(3-acetyl-5-(2-methylpyrimidin-5-yl)-1H-pyrazolo[3,4-c]pyridin-1-yl)acetyl)-N-(6-bromo-5-fluoro-3-methylpyridin-2-yl)-5-(cyanomethyl)-2-azabicyclo[3.1.0]hexane-3-carboxamide] | < 1000
CC(=O)c1nn(CC(=O)N2[C@H](C(=O)Nc3nc(Br)c(F)cc3C)C[C@@]3(CN4CC(F)(F)C4)C[C@@H]23)c2cnc(-c3cnc(C)nc3)cc12 [Compound 250, (1R,3S,5R)-2-(2-(3-acetyl-5-(2-methylpyrimidin-5-yl)-1H-pyrazolo[3,4-c]pyridin-1-yl)acetyl)-N-(6-bromo-5-fluoro-3-methylpyridin-2-yl)-5-((3,3-difluoroazetidin-1-yl)methyl)-2-azabicyclo[3.1.0]hexane-3-carboxomide] | < 1000
CC(=O)c1nn(CC(=O)N2[C@H](C(=O)Nc3nc(Br)c(F)cc3C)C[C@@]3(CF)C[C@@H]23)c2cnc(-c3cnc(C)nc3)cc12 [Compound 251] | < 1000
CC(=O)c1nn(CC(=O)N2[C@H](C(=O)Nc3nc(Br)c(F)cc3C)C[C@@]3(CN4CC5(CCCC5)C4)C[C@@H]23)c2cnc(-c3cnc(C)nc3)cc12 [Compound 252, (1R,3S,5R)-5-(2-azaspirp[3.4]octan-2-ylmethyl)-2-(2-(3-acetyl-5-(2-methylpyrimidin-5-yl)-1H-pyrazole[3,4-c]pyridin-1-yl)acetyl)-N-(6-bromo-5-fluoro-3-methylpyridin-2-yl)-2-azabicyclo[3.1.0]hexane-3-carboxomide] | < 1000
CC(=O)c1nn(CC(=O)N2[C@H](C(=O)Nc3nc(Br)c(F)cc3C)C[C@@]3(CN4C[C@H]5CCC[C@H]5C4)C[C@@H]23)c2cnc(-c3cnc(C)nc3)cc12 [Compound 253, (1R,3S,5R)-2-(2-(3-acetyl-5-(2-methylpyrimidin-5-yl)-1H-pyrazolo[3,4-c]pyridin-1-yl)acetyl)-N-(6-bromo-5-fluoro-3-methylpyridin-2-yl)-5-(((3aR,6aS)-hexahydrocyclopenta [c]pyrrol-2(1H)-yl)methyl)-2-azabicyclo[3.1.0]hexane-3-carboxamide] | < 1000
CC(=O)c1nn(CC(=O)N2[C@H](C(=O)Nc3nc(Br)c(F)cc3C)C[C@@]3(C)C[C@@H]23)c2cnc(-c3cnc(C)[n+]([O-])c3)cc12 [Compound 254, 5-(3-acetyl-1-(2-((1R,3S,5R)-3-((6-bromo-5-fluoro-3-methylpyridin-2-yl)carbamoyl)-5-methyl-2-azabicyclo[3.1.0]hexane-2-yl)-2-oxoethyl)-1H-pyrazolo[3,4-c]pyridin-5-yl)-2-methylpyrimidine 1-oxide] | < 1000
CC(=O)c1nn(CC(=O)N2[C@H](C(=O)Nc3nc(OC(F)(F)F)ccc3C)C[C@@]3(C)C[C@@H]23)c2cnc(-c3cnc(C)nc3)cc12 [Compound 256] | < 1000
CC(=O)c1nn(CC(=O)N2[C@H](C(=O)Nc3nc(Br)ccc3CC(C)C)C[C@@]3(C)C[C@@H]23)c2cnc(-c3cnc(C)nc3)cc12 [Compound 258, (1R,3S,5R)-2-(2-(3-acetyl-5-(2-methylpyrimidin-5-yl)-1H-pyrazolo[3,4-c]pyridin-1-yl)acetyl)-N-(6-bromo-3-isobutylpyridin-2-yl)-5-methyl-2-azabicyclo[3.1.0]hexane-3-carboxamide] | < 1000
CC(=O)c1nn(CC(=O)N2[C@H](C(=O)Nc3nc(Br)ccc3C)C[C@@]3(CN(CCO)CCO)C[C@@H]23)c2cnc(-c3cnc(C)nc3)cc12 [Compound 262, (1R,3S,5R)-2-(2-(3-acetyl-5-(2-methylpyrimidin-5-yl)-1H-pyrazolo[3,4-c]pyridin-1-yl)acetyl)-5-((bis(2-hydroxyethyl)amino)methyl)-N-(6-bromo-3-methylpyridin-2-yl)-2-azabicyclo[3.1.0] hexane-3-carboxamide] | < 1000
CC(=O)c1nn(CC(=O)N2[C@H](C(=O)Nc3nc(Br)c(F)cc3C)C[C@@]3(CN(C)C)C[C@@H]23)c2c(C)cc(-c3cnc(C)nc3)cc12 [Compound 263, (1R,3S,5R)-2-(2-(3-acetyl-7-methyl-5-(2-methylpyrimidin-5-yl)-1H-indazol-1-yl)acetyl)-N-(6-bromo-5-fluoro-3-methylpyridin-2-yl)-5-((dimethylamino)methyl)-2-azabicyclo[3.1.0] hexane-3-carboxamide] | < 1000
CC(=O)c1nn(CC(=O)N2[C@H](C(=O)Nc3nc(Br)c(F)cc3C)C[C@@]3(CN(C)C)C[C@@H]23)c2cnc(-c3cnc(C)nc3)cc12 [Compound 264, (1R,3S,5R)-2-(2-(3-acetyl-5-(2-methylpyrimidin-5-yl)-1H-pyrazolo[3,4-c]pyridin-1-yl)acetyl)-N-(6-bromo-5-fluoro-3-methylpyridin-2-yl)-5-((dimethylamino)methyl)-2-azabicyclo[3.1.0] hexane-3-carboxamide] | < 1000
CC(=O)c1nn(CC(=O)N2[C@H](C(=O)Nc3nc(Br)c(F)cc3C)C[C@@]3(C)C[C@@H]23)c2c(C(F)(F)F)nc(-c3cnc(C)nc3)cc12 [Compound 271, (1R,3S,5R)-2-(2-(3-acetyl-5-(2-methylpyrimidin-5-yl)-7-(trifluoromethyl)-1H-pyrazolo[3,4-c]pyridin-1-yl)acetyl)-N-(6-bromo-5-fluoro-3-methylpyridin-2-yl)-5-methyl-2-azabicyclo[3.1.0]hexane-3-carboxamide] | < 1000
CC(=O)c1nn(CC(=O)N2[C@H](C(=O)Nc3nc(Br)ccc3CN3CC4CC3CO4)C[C@@]3(C)C[C@@H]23)c2cnc(-c3cnc(C)nc3)cc12 (stereo partly drawn) [Compound 277, (1R,3S,5R)-N-(3-(2-oxa-5-azabicyclo[2.2.1]heptan-5-ylmethyl)-6-bromopyridin-2-yl)-2-(2-(3-acetyl-5-(2-methylpyrimidin-5-yl)-1H-pyrazolo[3,4-c]pyridin-1-yl)acetyl)-5-methyl-2-azabicyclo[3.1.0]hexane-3-carboxamide] | < 1000
CC(=O)c1nn(CC(=O)N2[C@H](C(=O)Nc3nc(Br)ccc3C)C[C@@]3([C@H](O)CO)C[C@@H]23)c2cnc(-c3cnc(C)nc3)cc12 [Compound 282] | < 1000

Same assay, conditions: Table 8; Factor D 80 nM, substrate Z-L-Lys-SBz; read-out: IC50

Structure (SMILES) | IC50 [nM]
CC(=O)c1nn(CC(=O)N2[C@H](C(=O)Nc3nc(Br)ccc3C)C[C@@]3(C)C[C@@H]23)c2ccc(-c3cnc(CNC(=O)COCCOCCNC(=O)COCCOCCNC(=O)CC[C@H](NC(=O)CCCCCCCCCCCCCCCCC(=O)O)C(=O)O)nc3)cc12 [Compound 242] | < 1000
CC(=O)c1nn(CC(=O)N2C[C@@]3(CC(c4ccccc4)=NO3)C[C@H]2C(=O)Nc2nc(Br)ccc2C)c2c(C)cc(-c3cnc(C)nc3)cc12 [Compound 243, (5S,8S)-7-(2-(3-acetyl-7-methyl-5-(2-methylpyrimidin-5-yl)-1H-indazol-1-yl)acetyl)-N-(6-bromo-3-methylpyridin-2-yl)-3-phenyl-1-oxa-2,7-diazaspiro[4.4]non-2-ene-8-carboxamide] | 1000 to 10000
CC(=O)c1nn(CC(=O)N2CC3(CC(C4CCCCC4)=NO3)C[C@H]2C(=O)Nc2nc(Br)ccc2C)c2c(C)cc(-c3cnc(C)nc3)cc12 (stereo partly drawn) [Compound 244, (8S)-7-(2-(3-acetyl-7-methyl-5-(2-methylpyrimidin-5-yl)-1H-indazol-1-yl)acetyl)-N-(6-bromo-3-methylpyridin-2-yl)-3-cyclohexyl-1-oxa-2,7-diazaspiro[4.4]non-2-ene-8-carboxamide] | < 1000
C=CCCCC(=O)NC[C@@]12C[C@@H](C(=O)Nc3nc(Br)ccc3C)N(C(=O)Cn3nc(C(C)=O)c4cc(-c5cnc(C)nc5)cc(CCC=C)c43)[C@@H]1C2 [Compound 266, (1R,3S,5R)-2-(2-(3-acetyl-7-(but-3-en-l-yl)-5-(2-methylpyrimidin-5-yl)-1H-indazol-1-yl)acetyl)-N-(6-bromo-3-methylpyridin-2-yl)-5-(hex-5-enamidomethyl)-2-azabicyclo[3.1.0]hexane-3-carboxamide] | < 1000
